ChEMBL document CHEMBL1130471, “RES-701-1/endothelin-1 hybrid peptide having a potent binding activity for type B receptor” (Bioorg Med Chem Lett, 1997)

Assays:
Endothelin-1 receptor = target: T1, Endothelin-1 receptor (Bos taurus, UniProt P21450); assay: Binding activity to ET-A receptor on bovine lung membrane was determined; assay type: tissue-based
T1 sequence (P21450 whole entry): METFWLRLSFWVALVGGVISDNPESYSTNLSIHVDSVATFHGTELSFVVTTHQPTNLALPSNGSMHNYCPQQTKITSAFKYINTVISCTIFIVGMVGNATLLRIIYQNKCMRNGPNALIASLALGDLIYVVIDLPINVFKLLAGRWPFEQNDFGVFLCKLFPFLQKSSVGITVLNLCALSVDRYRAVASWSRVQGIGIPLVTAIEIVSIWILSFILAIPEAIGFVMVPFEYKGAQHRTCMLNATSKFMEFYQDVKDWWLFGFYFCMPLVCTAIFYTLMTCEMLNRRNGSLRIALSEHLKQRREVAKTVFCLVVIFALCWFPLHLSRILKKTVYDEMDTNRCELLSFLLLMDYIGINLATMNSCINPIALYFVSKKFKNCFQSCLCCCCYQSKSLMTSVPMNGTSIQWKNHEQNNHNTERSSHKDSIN

[1] = target: T2, Endothelin receptor type B (Bos taurus, UniProt P28088); assay: Binding activity to ET-B receptor on bovine cerebellum membrane; assay type: tissue-based
T2 sequence (P28088 whole entry): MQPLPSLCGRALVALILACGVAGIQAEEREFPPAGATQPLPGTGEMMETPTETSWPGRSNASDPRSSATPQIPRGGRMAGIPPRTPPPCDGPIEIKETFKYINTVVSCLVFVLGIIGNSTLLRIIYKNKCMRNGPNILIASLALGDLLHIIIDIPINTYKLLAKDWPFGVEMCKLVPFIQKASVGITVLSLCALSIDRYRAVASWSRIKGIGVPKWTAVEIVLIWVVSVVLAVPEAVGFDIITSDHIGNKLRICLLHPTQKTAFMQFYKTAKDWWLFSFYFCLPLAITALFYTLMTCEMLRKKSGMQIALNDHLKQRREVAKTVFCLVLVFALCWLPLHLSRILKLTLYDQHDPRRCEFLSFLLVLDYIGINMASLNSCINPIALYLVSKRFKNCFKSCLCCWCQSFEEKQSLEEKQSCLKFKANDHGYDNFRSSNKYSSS

Row | IC50 [1] [µM] | Molecule | IC50 (Endothelin-1 receptor) [µM]
1 | – | CC[C@H](C)[C@H](NC(=O)[C@H](CC(=O)O)NC(=O)[C@H](CC(C)C)NC(=O)[C@H](Cc1c[nH]cn1)NC(=O)[C@H](C)NC(=O)[C@H](Cc1ccccc1)NC(=O)[C@H](Cc1ccc(O)cc1)NC(=O)[C@@H](NC(=O)[C@H](Cc1c[nH]c2ccccc12)NC(=O)[C@@H]1CC(=O)NCC(=O)N[C@@H](CC(N)=O)C(=O)N[C@@H](Cc2c[nH]c3ccccc23)C(=O)N[C@@H](Cc2c[nH]cn2)C(=O)NCC(=O)N[C@@H]([C@@H](C)O)C(=O)N[C@@H](C)C(=O)N2CCC[C@H]2C(=O)N1)C(C)C)C(=O)N[C@H](C(=O)N[C@@H](Cc1c[nH]c2ccccc12)C(=O)O)[C@@H](C)CC | > 0.1
2 | – | C[C@@H]1NC(=O)[C@H]([C@@H](C)O)NC(=O)CNC(=O)[C@H](Cc2c[nH]cn2)NC(=O)[C@H](Cc2c[nH]c3ccccc23)NC(=O)[C@H](CC(N)=O)NC(=O)CNC(=O)C[C@@H](C(=O)N[C@@H](Cc2c[nH]c3ccccc23)C(=O)N[C@@H](Cc2ccccc2)C(=O)N[C@@H](Cc2ccccc2)C(=O)N[C@@H](CC(N)=O)C(=O)N[C@@H](Cc2ccc(O)cc2)C(=O)N[C@@H](Cc2ccc(O)cc2)C(=O)N[C@@H](Cc2c[nH]c3ccccc23)C(=O)O)NC(=O)[C@@H]2CCCN2C1=O | > 5
3 | – | CC[C@H](C)[C@H](NC(=O)[C@@H](NC(=O)[C@H](CC(=O)O)NC(=O)[C@H](CCC(N)=O)NC(=O)[C@H](Cc1c[nH]cn1)NC(=O)[C@H](C)NC(=O)[C@H](Cc1ccccc1)NC(=O)[C@H](Cc1ccc(O)cc1)NC(=O)[C@H](CC(C)C)NC(=O)[C@H](Cc1c[nH]c2ccccc12)NC(=O)[C@@H]1CC(=O)NCC(=O)N[C@@H](CC(N)=O)C(=O)N[C@@H](Cc2c[nH]c3ccccc23)C(=O)N[C@@H](Cc2c[nH]cn2)C(=O)NCC(=O)N[C@@H]([C@@H](C)O)C(=O)N[C@@H](C)C(=O)N2CCC[C@H]2C(=O)N1)C(C)C)C(=O)N[C@@H](Cc1c[nH]c2ccccc12)C(=O)O | > 0.1
4 | – | CC[C@H](C)[C@H](NC(=O)[C@H](CC(=O)O)NC(=O)[C@H](CC(C)C)NC(=O)[C@H](Cc1c[nH]cn1)NC(=O)[C@H](C)NC(=O)[C@H](Cc1ccc(O)cc1)NC(=O)[C@H](Cc1ccc(O)cc1)NC(=O)[C@@H](NC(=O)[C@H](Cc1c[nH]c2ccccc12)NC(=O)[C@@H]1CC(=O)NCC(=O)N[C@@H](CC(N)=O)C(=O)N[C@@H](Cc2c[nH]c3ccccc23)C(=O)N[C@@H](Cc2c[nH]cn2)C(=O)NCC(=O)N[C@@H]([C@@H](C)O)C(=O)N[C@@H](C)C(=O)N2CCC[C@H]2C(=O)N1)C(C)C)C(=O)N[C@H](C(=O)N[C@@H](Cc1c[nH]c2ccccc12)C(=O)O)[C@@H](C)CC | > 0.1
5 | 5 | C[C@H](NC(=O)[C@@H](NC(=O)CNC(=O)[C@H](Cc1c[nH]cn1)NC(=O)[C@H](Cc1c[nH]c2ccccc12)NC(=O)[C@H](CC(N)=O)NC(=O)CN)[C@@H](C)O)C(=O)N1CCC[C@H]1C(=O)N[C@@H](CC(=O)O)C(=O)N[C@@H](Cc1c[nH]c2ccccc12)C(=O)N[C@@H](Cc1ccccc1)C(=O)N[C@@H](Cc1ccccc1)C(=O)N[C@@H](CC(N)=O)C(=O)N[C@@H](Cc1ccc(O)cc1)C(=O)N[C@@H](Cc1ccc(O)cc1)C(=O)N[C@@H](Cc1c[nH]c2ccccc12)C(=O)O | –
6 | 3 | H-LYFCHQDVIW-OH | –
7 | 3 | H-VYYCHLDIIW-OH | –
8 | 3 | H-WFFNYYW-OH | –

Row | Molecule | IC50 [1] [µM] | IC50 (Endothelin-1 receptor) [µM]
9 | C[C@@H]1NC(=O)[C@H]([C@@H](C)O)NC(=O)CNC(=O)[C@H](Cc2c[nH]cn2)NC(=O)[C@H](Cc2c[nH]c3ccccc23)NC(=O)[C@H](CC(N)=O)NC(=O)CNC(=O)[C@H](Cc2c[nH]c3ccccc23)NC(=O)[C@H](Cc2ccc(O)cc2)NC(=O)[C@H](Cc2ccc(O)cc2)NC(=O)[C@H](CC(N)=O)NC(=O)[C@H](Cc2ccccc2)NC(=O)[C@H](Cc2ccccc2)NC(=O)[C@H](Cc2c[nH]c3ccccc23)NC(=O)[C@H](CC(=O)O)NC(=O)[C@@H]2CCCN2C1=O | > 5 | –
10 | CC[C@H](C)[C@H](NC(=O)[C@H](CC(=O)O)NC(=O)[C@H](CC(C)C)NC(=O)[C@H](Cc1cnc[nH]1)NC(=O)[C@@H]1CSSC[C@H](N)C(=O)N[C@@H](CO)C(=O)N[C@H]2CSSC[C@H](NC(=O)[C@H](CCC(=O)O)NC(=O)[C@H](CCCCN)NC(=O)[C@H](CC(=O)O)NC(=O)[C@H](CCSC)NC(=O)[C@H](CC(C)C)NC(=O)[C@H](CO)NC(=O)[C@H](CO)NC2=O)C(=O)N[C@@H](C(C)C)C(=O)N[C@@H](Cc2ccc(O)cc2)C(=O)N[C@@H](Cc2ccccc2)C(=O)N1)C(=O)N[C@H](C(=O)N[C@@H](Cc1c[nH]c2ccccc12)C(=O)O)[C@@H](C)CC [ENDOTHELIN] | 1 | –
11 | H-VYFSHLDIIW-OH | 1 | –
